Reference: patent US9682957B2 (Theravance Respiratory Company, LLC, priority 2009, dated 2017)
Where a name gives a salt, the structure may show the parent alone.

test system: MCh-induced bronchoconstriction; test: Einthoven assay: bronchoprotection against methacholine (MCh)-induced bronchoconstriction; format: in vivo; conditions: rat, 100 μg by inhalation, 24 h after administration
Description: This assay measures the ability of a test compound to provide bronchoprotection against methacholine (MCh)-induced bronchoconstriction in a rat. Male Sprague-Dawley rats (Harlan, Indianapolis, Ind.), weighing between 200 g and 350 g, were used for all studies. Test compound or vehicle (sterile deionized water) were dosed by inhalation (IH) over a 10 min period in a pie shaped inhalation chamber (R+S Molds, San Carlos, Calif.) using 5 mL of dosing solution. […] Rats were dosed with 100 μg of test compound unless otherwise indicated. At predetermined time points, rats were anesthetized with an intraperitoneal (IP) injection of 120 mg/kg inactin (thiobutabarbital). A supplemental dose (40 mg/kg, IP) was administered if the animal responded to physical stimuli (e.g. toe pinch). The surgical site was shaved and a 1-2 cm midline incision of the ventral aspect of the neck was made. The jugular vein was isolated and cannulated with a saline-filled polyethylene catheter (PE-50) to allow IV infusion of MCh. Trachea was dissected free and cannulated with a 14G needle (#NE-014, Small Parts, Miami Lakes, Fla.). After placement of the tracheal cannula, each rat was ventilated using a respirator (Model 683, Harvard Apparatus, Inc., MA) set at a stroke volume of 1 mL/100 g body weight (but not exceeding 2.5 mL volume) and a rate of 90 strokes per minute. A T-connector was placed along the respirator expiratory tubing to allow for measurement of changes in ventilation pressure (VP) using a Biopac transducer that was connected to a Biopac […]) pre-amplifier. Body temperature was maintained at 37° C. using a heating pad. Changes in VP were recorded using the Acknowledge Data Collection Software (Santa Barbara, Calif.). Baseline values were collected for at least 2.5 min. Rats were then challenged with non-cumulative intravenous (IV) infusions of 40 and 80 μg/kg MCh. MCh was infused intravenously for 2.5 minutes from a syringe pump (sp210iw, World Precision Instruments, Inc., Sarasota, Fla.) at a rate of 2 mL/kg/min, with a 2 minute interval between the two doses of MCh. Changes in ventilation pressure (cm H2O) in treated animals are expressed as % inhibition of MCh response relative to control animals. Other bronchoconstrictors, such as histamine and acetylcholine, can be used in place of MCh in this assay. Additionally, guinea pigs can be used instead of rats. […] Inhibition greater than or equal to 30 percent at 24 h is indicative of a long duration of action.

| SMILES | Broncho. at 24 h |
| --- | --- |
| CN(CCCC(=O)Nc1cccc(CCNC[C@H](O)c2ccc(O)c3[nH]c(=O)ccc23)c1)C(=O)CCN1CCC(OC(=O)Nc2ccccc2-c2ccccc2)CC1 [Compound I-7, Biphenyl-2-ylcarbamic Acid 1-(2-{[3-(3-{2-[(R)-2-Hydroxy-2-(8-hydroxy-2-oxo-1,2-dihydroquinolin-5-yl)ethylamino]ethyl}phenylcarbamoyl)-propyl]methylcarbamoyl}ethyl)piperidin-4-yl Ester Ditrifluoroacetic Acid Salt] | Yes (Bronchoprotective effect present at 24 h, e.g., ≧30 % inhibition of the MCh response at 24 h in the rat Einthoven assay (100 μg)) |
| C[C@@H](Cc1cccc(CC(=O)NCCCN(C)C(=O)CCN2CCC(OC(=O)Nc3ccccc3-c3ccccc3)CC2)c1)NC[C@H](O)c1ccc(O)c2[nH]c(=O)ccc12 [Compound I-13, Biphenyl-2-ylcarbamic Acid 1-[2-({3-[2-(3-{(S)-2-[(R)-2-Hydroxy-2-(8-hydroxy-2-oxo-1,2-dihydroquinolin-5-yl)ethylamino]propyl}phenyl)acetylamino]-propyl}methylcarbamoyl)ethyl]piperidin-4-yl Ester Ditrifluoroacetic Acid Salt] | Yes (Bronchoprotective effect present at 24 h, e.g., ≧30 % inhibition of the MCh response at 24 h in the rat Einthoven assay (100 μg)) |
| CN(CCCCC(=O)Nc1ccc(CNC[C@H](O)c2ccc(O)c3[nH]c(=O)ccc23)cc1)C(=O)CCN1CCC(OC(=O)Nc2ccccc2-c2ccccc2)CC1 [Compound I-14, Biphenyl-2-ylcarbamic Acid 1-(2-{[4-(4-{[(R)-2-hydroxy-2-(8-hydroxy-2-oxo-1,2-dihydroquinolin-5-yl)ethylamino]methyl}phenylcarbamoyl)-butyl]methylcarbamoyl}ethyl)piperidin-4-yl Ester Ditrifluoroacetic Acid Salt] | Yes (Bronchoprotective effect present at 24 h, e.g., ≧30 % inhibition of the MCh response at 24 h in the rat Einthoven assay (100 μg)) |
| Cc1cc(NC(=O)CCCCN(C)C(=O)CCN2CCC(OC(=O)Nc3ccccc3-c3ccccc3)CC2)c(C)cc1CNC[C@H](O)c1ccc(O)c2[nH]c(=O)ccc12 [Compound I-18, Biphenyl-2-ylcarbamic Acid 1-(2-{[4-(4-{[(R)-2-Hydroxy-2-(8-hydroxy-2-oxo-1,2-dihydroquinolin-5-yl)ethylamino]methyl}-2,5-dimethylphenylcarbamoyl)butyl]methylcarbamoyl}ethyl)piperidin-4-yl Ester Ditrifluoroacetic Acid Salt] | Yes (Bronchoprotective effect present at 24 h, e.g., ≧30 % inhibition of the MCh response at 24 h in the rat Einthoven assay (100 μg)) |
| CN(C(=O)CCN1CCC(OC(=O)Nc2ccccc2-c2ccccc2)CC1)c1cccc(C(=O)Nc2ccc(CCNC[C@H](O)c3ccc(O)c4[nH]c(=O)ccc34)cc2)c1 [Compound I-34, Ditrifluoroacetate] | Yes (Bronchoprotective effect present at 24 h, e.g., ≧30 % inhibition of the MCh response at 24 h in the rat Einthoven assay (100 μg)) |
| Cc1ccc(C(=O)Nc2ccc(CCNC[C@H](O)c3ccc(O)c4[nH]c(=O)ccc34)cc2)cc1N(C)C(=O)CCN1CCC(OC(=O)Nc2ccccc2-c2ccccc2)CC1 [Compound I-35] | Yes (Bronchoprotective effect present at 24 h, e.g., ≧30 % inhibition of the MCh response at 24 h in the rat Einthoven assay (100 μg)) |
| CC(Cc1cccc(CCNC(=O)Cc2ccc(N(C)C(=O)CCN3CCC(OC(=O)Nc4ccccc4-c4ccccc4)CC3)cc2)c1)NC[C@H](O)c1ccc(O)c2[nH]c(=O)ccc12 (some centres unmarked) [Compound I-85, ditrifluoroacetic acid salt] | Yes (Bronchoprotective effect present at 24 h, e.g., ≧30 % inhibition of the MCh response at 24 h in the rat Einthoven assay (100 μg)) |

same assay, conditions: rat, 100 μg by inhalation, 24 h after administration; ditrifluoroacetic acid salt

| SMILES | Broncho. at 24 h |
| --- | --- |
| CC(Cc1ccc(CNC(=O)Cc2ccc(N(C)C(=O)CCN3CCC(OC(=O)Nc4ccccc4-c4ccccc4)CC3)cc2)cc1)NC[C@H](O)c1ccc(O)c2[nH]c(=O)ccc12 (stereo partly drawn) [Compound I-66, Biphenyl-2-ylcarbamic acid 1-[2-({4-[(4-{2-[(R)-2-hydroxy-2-(8-hydroxy-2-oxo-1,2-dihydroquinolin-5-yl)-ethylamino]propyl}benzylcarbamoyl)methyl]phenyl}-methylcarbamoyl)ethyl]piperidin-4-yl ester ditrifluoroacetic acid salt] | No |
